# Measured values reported in patent US20170253562A1, “Nampt Inhibitors” (AbbVie Inc., priority 2011, published 2017).
# Molecular target: recombinant, human, C-terminally-His tagged NAMPT (Homo sapiens, UniProt P43490)
# Test: Time-Resolved Fluorescence Resonance Energy Transfer (TR-FRET) binding assay of NAMPT
# Conditions: 6.8 nM NAMPT, 200 nM probe (Oregon Green 488-conjugated APO866), 2-3 hours
# Experimental: Time-Resolved Fluorescence Resonance Energy Transfer (TR-FRET) Binding Assay of NAMPT
# Plates were read with Envision (Laser Lantha low volume protocol) after 2 to 3 hours.
# Chain of recombinant, human, C-terminally-His tagged NAMPT (P43490 whole entry): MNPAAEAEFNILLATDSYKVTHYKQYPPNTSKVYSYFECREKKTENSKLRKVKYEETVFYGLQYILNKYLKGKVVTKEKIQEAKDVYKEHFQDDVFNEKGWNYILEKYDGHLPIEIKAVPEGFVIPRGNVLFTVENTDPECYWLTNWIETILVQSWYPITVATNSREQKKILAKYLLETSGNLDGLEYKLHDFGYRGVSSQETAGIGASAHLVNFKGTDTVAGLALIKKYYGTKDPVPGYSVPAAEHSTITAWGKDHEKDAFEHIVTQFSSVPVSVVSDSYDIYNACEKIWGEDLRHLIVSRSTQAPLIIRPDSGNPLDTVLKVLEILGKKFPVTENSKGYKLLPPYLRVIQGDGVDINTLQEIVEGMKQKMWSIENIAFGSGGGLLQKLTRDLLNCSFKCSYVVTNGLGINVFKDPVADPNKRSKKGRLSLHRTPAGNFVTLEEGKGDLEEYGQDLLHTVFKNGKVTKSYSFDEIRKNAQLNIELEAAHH
row,SMILES,IC50 [nM]
1,"O=C(NCc1nnn2c1CNCCC2)c1ccc(NC(=O)N2Cc3ccccc3C2)nn1 [Example 49, N-{6-[(5,6,7,8-tetrahydro-4H-[1,2,3]triazolo[1,5-a][1,4]diazepin-3-ylmethyl)carbamoyl]pyridazin-3-yl}-1,3-dihydro-2H-isoindole-2-carboxamide]",4700
2,"O=C(NCc1nnc2n1CCCNC2)c1ccc(NC(=O)N2Cc3ccccc3C2)nn1 [Example 39, N-{6-[(6,7,8,9-tetrahydro-5H-[1,2,4]triazolo[4,3-a][1,4]diazepin-3-ylmethyl)carbamoyl]pyridazin-3-yl}-1,3-dihydro-2H-isoindole-2-carboxamide]",3260
3,"O=C(NCCC1CCCCO1)c1ccc(NC(=O)N2Cc3ccccc3C2)cc1 (centres unmarked) [Example 4, N-(4-{[2-(tetrahydro-2H-pyran-2-yl)ethyl]carbamoyl}phenyl)-1,3-dihydro-2H-isoindole-2-carboxamide]",4.08
4,"O=C(NC[C@H]1CC2CNCCN2C1)c1ccc(NC(=O)N2Cc3ccccc3C2)nn1 (stereo partly drawn) [Example 27, N-(6-{[(7R)-octahydropyrrolo[1,2-a]pyrazin-7-ylmethyl]carbamoyl}pyridazin-3-yl)-1,3-dihydro-2H-isoindole-2-carboxamide]",602
5,"O=C(NCCN1CCNC1=O)c1ccc(NC(=O)N2Cc3ccccc3C2)cc1 [Example 3, N-(4-{[2-(2-oxoimidazolidin-1-yl)ethyl]carbamoyl}phenyl)-1,3-dihydro-2H-isoindole-2-carboxamide]",32.6
6,"O=C(NCC1CCC2(CCNCC2)O1)c1ccc(NC(=O)N2Cc3ccccc3C2)nn1 (centres unmarked) [Example 32, N-{6-[(1-oxa-8-azaspiro[4.5]dec-2-ylmethyl)carbamoyl]pyridazin-3-yl}-1,3-dihydro-2H-isoindole-2-carboxamide]",782
7,"O=C(NCC1CC2(CCNCC2)C1)c1ccc(NC(=O)N2Cc3ccccc3C2)nn1 [Example 48, N-{6-[(7-azaspiro[3.5]non-2-ylmethyl)carbamoyl]pyridazin-3-yl}-1,3-dihydro-2H-isoindole-2-carboxamide]",68.9
8,"O=C(NCC1COC2(CCNCC2)C1)c1ccc(NC(=O)N2Cc3ccccc3C2)cc1 (centres unmarked) [Example 7, N-{4-[(1-oxa-8-azaspiro[4.5]dec-3-ylmethyl)carbamoyl]phenyl}-1,3-dihydro-2H-isoindole-2-carboxamide]",7.39
9,"O=C(NCC1(F)CCNCC1)c1ccc(NC(=O)N2Cc3ccccc3C2)nn1 [Example 43, N-(6-{[(4-fluoropiperidin-4-yl)methyl]carbamoyl}pyridazin-3-yl)-1,3-dihydro-2H-isoindole-2-carboxamide]",2880
10,"O=C(NC1[C@H]2CNC[C@@H]12)c1ccc(NC(=O)N2Cc3ccccc3C2)nn1 (stereo partly drawn) [Example 26, N-{6-[(1R,5S)-3-azabicyclo[3.1.0]hex-6-ylcarbamoyl]pyridazin-3-yl}-1,3-dihydro-2H-isoindole-2-carboxamide]",2890
11,"O=C(NCC1COC2(CCNCC2)C1)c1ccc(NC(=O)N2Cc3ccccc3C2)nn1 (centres unmarked) [Example 33, N-{6-[(1-oxa-8-azaspiro[4.5]dec-3-ylmethyl)carbamoyl]pyridazin-3-yl}-1,3-dihydro-2H-isoindole-2-carboxamide]",284

# Continued, values first:
row,IC50 [nM],SMILES
1,101,"O=C(Nc1ccc(C(=O)N2CCC3(CCNCC3)CC2)nn1)N1Cc2ccccc2C1 [Example 21, N-[6-(3,9-diazaspiro[5.5]undec-3-ylcarbonyl)pyridazin-3-yl]-1,3-dihydro-2H-isoindole-2-carboxamide]"
2,270,"O=C(Nc1ccc(C(=O)N2CC3CCOC3C2)nn1)N1Cc2ccccc2C1 (centres unmarked) [Example 11, N-[6-(hexahydro-5H-furo[2,3-c]pyrrol-5-ylcarbonyl)pyridazin-3-yl]-1,3-dihydro-2H-isoindole-2-carboxamide]"
3,1270,"O=C(Nc1ccc(C(=O)N2CCCC3(CCNC3)C2)nn1)N1Cc2ccccc2C1 (centres unmarked) [Example 22, N-[6-(2,7-diazaspiro[4.5]dec-7-ylcarbonyl)pyridazin-3-yl]-1,3-dihydro-2H-isoindole-2-carboxamide]"
4,10000,"O=C(Nc1ccc(C(=O)N2CC3(CNC3)C2)nn1)N1Cc2ccccc2C1 [Example 44, N-[6-(2,6-diazaspiro[3.3]hept-2-ylcarbonyl)pyridazin-3-yl]-1,3-dihydro-2H-isoindole-2-carboxamide]"
5,218,"O=C(Nc1ccc(C(=O)N2CCC3(CC2)CNC3)nn1)N1Cc2ccccc2C1 [Example 34, N-[6-(2,7-diazaspiro[3.5]non-7-ylcarbonyl)pyridazin-3-yl]-1,3-dihydro-2H-isoindole-2-carboxamide]"
6,2050,"O=C(Nc1ccc(C(=O)N2CCOC3(CCOC3)C2)nn1)N1Cc2ccccc2C1 (centres unmarked) [Example 12, N-[6-(2,6-dioxa-9-azaspiro[4.5]dec-9-ylcarbonyl)pyridazin-3-yl]-1,3-dihydro-2H-isoindole-2-carboxamide]"
7,578,"O=C(Nc1ccc(C(=O)N2CCC3(CCOC3)C2)nn1)N1Cc2ccccc2C1 (centres unmarked) [Example 15, N-[6-(2-oxa-7-azaspiro[4.4]non-7-ylcarbonyl)pyridazin-3-yl]-1,3-dihydro-2H-isoindole-2-carboxamide]"
8,261,"O=C(Nc1ccc(C(=O)N2CC3(CCCCO3)C2)nn1)N1Cc2ccccc2C1 [Example 46, N-[6-(5-oxa-2-azaspiro[3.5]non-2-ylcarbonyl)pyridazin-3-yl]-1,3-dihydro-2H-isoindole-2-carboxamide]"
9,3150,"O=C(Nc1ccc(C(=O)N2CC3(CCCNC3)C2)nn1)N1Cc2ccccc2C1 [Example 28, N-[6-(2,6-diazaspiro[3.5]non-2-ylcarbonyl)pyridazin-3-yl]-1,3-dihydro-2H-isoindole-2-carboxamide]"
